Test results reported in ChEMBL document CHEMBL1909046, “DrugMatrix in vitro pharmacology data”.

Tests used:
[1] = target: Sigma non-opioid intracellular receptor 1 (Homo sapiens, UniProt Q99720); assay: DRUGMATRIX: Sigma1 radioligand binding (ligand: [3H] Haloperidol); format: cell membranes, Jurkat, Membrane; details: jurkat; Not Active = under 50% inhibition at 10 µM
[2] = DRUGMATRIX: Phosphodiesterase PDE3 enzyme inhibition (substrate: [3H]cAMP + cAMP); format: tissue-based, Homo sapiens; details: platelet, Not Active = under 50% inhibition at 10 µM
D(3) dopamine receptor = D(3) dopamine receptor (Homo sapiens, UniProt P35462); assay: DRUGMATRIX: Dopamine D3 radioligand binding (ligand: [3H] Spiperone); format: cell membranes, CHO, Membrane; details: for Ki: read-out: Ki
[3] = DRUGMATRIX: Leukotriene, BLT (LTB4) radioligand binding (ligand: [3H]LTB4); format: cell membranes, Membrane; details: u-937; Not Active = under 50% inhibition at 10 µM
Substance-P receptor = Substance-P receptor (Homo sapiens, UniProt P25103); format: cell membranes, Membrane; details: cho; further: in other assays of this panel Not Active means under 50% inhibition at 10 µM
[4] = target: cGMP-specific 3',5'-cyclic phosphodiesterase (Homo sapiens, UniProt O76074); assay: DRUGMATRIX: Phosphodiesterase PDE5 enzyme inhibition (substrate: [3H]cGMP + cGMP); format: tissue-based; details: platelet; Not Active = under 50% inhibition at 10 µM
[5] = DRUGMATRIX: Sodium/nucleoside co-transporter radioligand binding (ligand: nitrobenzylthioinosine); format: cell membranes, Cavia porcellus, Dunkin-Hartley, Cerebral cortex, Membrane; details: Not Active = under 50% inhibition at 10 µM

Chain of Sigma non-opioid intracellular receptor 1 (Q99720 whole entry): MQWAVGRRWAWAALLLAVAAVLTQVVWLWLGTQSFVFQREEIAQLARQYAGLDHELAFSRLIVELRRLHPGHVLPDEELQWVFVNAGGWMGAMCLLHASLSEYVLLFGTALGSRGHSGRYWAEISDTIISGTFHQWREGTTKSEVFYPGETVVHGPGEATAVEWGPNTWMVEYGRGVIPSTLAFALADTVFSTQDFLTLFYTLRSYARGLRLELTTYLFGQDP
Chain of D(3) dopamine receptor (P35462 whole entry): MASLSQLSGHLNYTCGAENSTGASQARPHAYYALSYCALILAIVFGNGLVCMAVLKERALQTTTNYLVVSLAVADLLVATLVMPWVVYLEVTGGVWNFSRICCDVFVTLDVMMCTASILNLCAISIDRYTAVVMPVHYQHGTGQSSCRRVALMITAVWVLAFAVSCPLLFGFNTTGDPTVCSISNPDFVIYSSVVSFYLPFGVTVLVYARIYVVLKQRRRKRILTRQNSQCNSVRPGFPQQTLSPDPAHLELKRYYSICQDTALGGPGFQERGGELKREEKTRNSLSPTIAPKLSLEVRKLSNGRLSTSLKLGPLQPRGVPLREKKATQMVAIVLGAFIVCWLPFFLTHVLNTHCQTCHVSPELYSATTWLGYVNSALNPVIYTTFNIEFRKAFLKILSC
Chain of Substance-P receptor (P25103 whole entry): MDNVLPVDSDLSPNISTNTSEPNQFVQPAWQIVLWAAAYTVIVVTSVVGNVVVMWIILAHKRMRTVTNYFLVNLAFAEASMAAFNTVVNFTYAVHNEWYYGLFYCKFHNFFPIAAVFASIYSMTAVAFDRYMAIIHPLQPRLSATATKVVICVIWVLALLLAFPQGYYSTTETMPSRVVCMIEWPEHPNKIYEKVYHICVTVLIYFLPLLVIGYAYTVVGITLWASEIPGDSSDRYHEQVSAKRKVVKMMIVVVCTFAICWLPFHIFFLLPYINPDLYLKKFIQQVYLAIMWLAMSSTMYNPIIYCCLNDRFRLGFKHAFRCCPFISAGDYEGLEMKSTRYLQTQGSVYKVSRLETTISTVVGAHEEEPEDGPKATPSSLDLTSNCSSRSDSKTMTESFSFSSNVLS

SMILES | IC50 [1] | IC50 [2] | Ki [2] | IC50 (D(3) dopamine receptor; cho) | IC50 [3] | Ki [3] | IC50 (Substance-P receptor) | IC50 [4] | IC50 [5] | Ki [5] | IC50 (D(3) dopamine receptor; read-out: IC50) [nM] | Ki (D(3) dopamine receptor) [nM] | IC50 ([2]; read-out: IC50) [nM]
Nc1nc(Cl)nc2c1ncn2[C@H]1C[C@H](O)[C@@H](CO)O1 [CLADRIBINE] | Not Active | Not Active | Not Active | Not Active | Not Active | Not Active | Not Active | Not Active | Not Active | Not Active | – | – | –
CN1C[C@H](C(=O)N[C@]2(C)O[C@@]3(O)[C@@H]4CCCN4C(=O)[C@H](Cc4ccccc4)N3C2=O)C[C@@H]2c3cccc4[nH]cc(c34)C[C@H]21 [DIHYDROERGOTAMINE] | Not Active | Not Active | Not Active | – | Not Active | Not Active | Not Active | Not Active | Not Active | Not Active | 5.34 | 1.81 | –
CC[C@H](C)C(=O)O[C@H]1C[C@@H](C)C=C2C=C[C@H](C)[C@H](CC[C@@H]3C[C@@H](O)CC(=O)O3)[C@H]21 [LOVASTATIN] | Not Active | Not Active | Not Active | Not Active | Not Active | Not Active | Not Active | Not Active | Not Active | Not Active | – | – | –
CC[C@H](C)C(=O)O[C@H]1C[C@H](O)C=C2C=C[C@H](C)[C@H](CC[C@@H](O)C[C@@H](O)CC(=O)O)[C@H]21 [PRAVASTATIN] | Not Active | Not Active | Not Active | Not Active | Not Active | Not Active | Not Active | Not Active | Not Active | Not Active | – | – | –
CCOC(=O)n1ccn(C)c1=S [CARBIMAZOLE] | Not Active | Not Active | Not Active | Not Active | Not Active | Not Active | Not Active | Not Active | Not Active | Not Active | – | – | –
C#C[C@]1(O)CC[C@H]2[C@@H]3CCC4=Cc5oncc5C[C@]4(C)[C@H]3CC[C@@]21C [DANAZOL] | Not Active | – | – | – | Not Active | Not Active | Not Active | Not Active | Not Active | Not Active | 28900 | 9800 | 2540
